Assays:
Assay type in all cases: in vivo
[1] = tested on: Housefly [Musca domestica]; assay: Housefly contact mortality in dishes (HF), 48 hours; settings: μg of test compound per 25 female flies
Summary of the method: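 LC50 (μg compound per 25 female flies) derives from dosage-mortality curves of 48 h kill. Flies, females 1-2 days old, were held 25 per cage over a dish coated with dried acetone deposit, starting at 100 μg per cage and descending.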

[2] = tested on: Black Bean Aphid [Aphis fabae (Scop.)]; assay: Black bean aphid spray test on nasturtium (BBA), 48 hours; settings: percent of test compound in sprayed solution
Summary of the method: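 LC50, given as percent test compound in the sprayed liquid, was calculated from dosage-mortality curves using concentrations from 0.05% downward. Sprays in 50:50 acetone-water went to runoff on ~5 cm nasturtiums carrying 25-50 aphids of mixed ages, one day after infestation. Deaths were counted 48 h later under greenhouse conditions.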

[3] = tested on: Tobacco Budworm [Heliothis virescens (Fabricius)] larvae; assay: Tobacco budworm larvae, contact (TBW-C), 5 days; settings: percent in solution, second-instar larvae
Description: The compounds in Tables 1 and 2 above were tested for insecticidal activity using the following testing procedures. LC50 values, based on the results of these tests and calculated according to dosage-mortality curves, are expressed in Table 3.
Tobacco Budworm [Heliothis virescens (Fabricius)]:
(a) Contact: Test compounds were diluted in a 50-50 acetone-water solution. Cotton (Gossypium sp.) cotyledons were immersed in the test solutions for 2-3 seconds and placed on a wire screen to dry. The dried leaves were placed in petri dishes containing a moistened piece of filter paper and infested with 5 second-instar tobacco budworm larvae. The dishes were placed in a high humidity chamber for 5 days, and percent mortality of the larvae recorded. Test concentrations ranged from 0.1% downward. The LC-50 values are expressed below in Table 3 under the heading "TBW-C" in terms of percent of the test compound in the solution.

[4] = tested on: Tobacco Budworm [Heliothis virescens (Fabricius)] eggs; assay: Tobacco budworm eggs (TBW-E); settings: percent in solution; 2-day old eggs
Summary of the method: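 LC50 is given as percent compound in the dipping solution, fitted from dosage-mortality curves. Two-day-old eggs on paper towel were dipped in acetone solutions (top concentration 0.1%), kept at 78° F on rearing medium, and scored after control hatch and larval feeding.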

[5] = tested on: Cabbage Looper [Trichoplusia ni (Hubner)]; assay: Cabbage looper leaf dip (CL), 3-5 days; settings: percent in solution, second-instar larvae
Summary of the method: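 LC50, as percent test compound in solution, derived from dosage-mortality curves; concentrations started at 0.1% and went lower. Five second-instar larvae per dish fed on acetone-water-dipped, dried squash cotyledons in a humid chamber. Deaths recorded 3-5 days post-infestation.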

[6] = tested on: Aster Leafhopper [Macrosteles fascifrens (Stal)]; assay: Aster leafhopper on dipped oat seedlings (LH), 48 hours; settings: percent in solution, adults/nymphs
Summary of the method: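 LC50 values, given as percent of test compound in the dip solution, were derived from dosage-mortality curves over concentrations from 0.05% downward. Mortality was counted 48 hours after ten leafhopper adults/nymphs were enclosed on treated seedlings. The seedlings were oats, about 10 cm tall, briefly dipped in 50-50 acetone-water.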

[7] = tested on: Maize weevil [Sitophilus zeamais (Motschulsky)]; assay: Maize weevil on dipped corn seeds (MW), 48 hours; settings: percent in solution, adult weevils
Summary of the method: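 LC50, given as percent of compound in dipping solution, comes from dosage-mortality curves over concentrations descending from 0.01%. Four corn seeds soaked 2-3 s in 50:50 acetone:water solution were dried and held with 10 adult weevils, about 25° C, mortality read after 48 h.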

## ClC(Cl)C(=Nc1ccccc1)OCc1cccc(Oc2ccccc2)c1 [Compound 41]
[1]
  LC50 HF: 4.5 µg
[2]
  LC50 BBA: 0.001%
[3]
  LC50 TBW C (contact): 0.0035%
[4]
  LC50 TBW E (eggs): 0.04%
[5]
  LC50 CL: 0.015%

## Fc1ccc(N=C(OCc2cccc(Oc3ccccc3)c2)C(Cl)Cl)cc1 [Compound 44]
[1]
  LC50 HF: 3 µg
[2]
  LC50 BBA: 0.0006%
[3]
  LC50 TBW C (contact): < 0.1%
[4]
  LC50 TBW E (eggs): 0.06%

## Cc1c(F)cccc1N=C(OCc1cccc(Oc2ccccc2)c1)C(C)C [Compound 73]
[1]
  LC50 HF: 25 µg
[2]
  LC50 BBA: 0.003%
[3]
  LC50 TBW C (contact): 0.005%
[4]
  LC50 TBW E (eggs): 0.025%
[5]
  LC50 CL: 0.004%

## Cc1ccc(F)cc1N=C(OCc1cccc(Oc2ccccc2)c1)C(C)C [Compound 74]
[1]
  LC50 HF: 25 µg
[2]
  LC50 BBA: 0.001%
[3]
  LC50 TBW C (contact): 0.0025%
[4]
  LC50 TBW E (eggs): 0.025%
[5]
  LC50 CL: 0.005%

## COc1ccc(N=C(OCc2cccc(Oc3ccccc3)c2)C(C)C)cc1Cl [Compound 95]
[1]
  LC50 HF: 10 µg
[2]
  LC50 BBA: 0.001%
[3]
  LC50 TBW C (contact): 0.004%
[4]
  LC50 TBW E (eggs): 0.025%
[5]
  LC50 CL: 0.0025%

## Cc1cc(Cl)ccc1N=C(OCc1cccc(Oc2ccccc2)c1)C(C)C [Compound 96]
[1]
  LC50 HF: 35 µg
[2]
  LC50 BBA: 0.002%
[3]
  LC50 TBW C (contact): 0.0025%
[4]
  LC50 TBW E (eggs): 0.025%
[5]
  LC50 CL: 0.003%

## C#CC(OC(=Nc1cccc(C(F)(F)F)c1)C(C)C)c1cccc(Oc2ccccc2)c1 (centres unmarked) [Compound 519]
[1]
  LC50 HF: 60 µg
[2]
  LC50 BBA: > 0.05%
[4]
  LC50 TBW E (eggs): > 0.1%
[5]
  LC50 CL: 0.0037%
[6]
  LC50 LH: > 0.05%
[7]
  LC50 MW: > 0.01%

## CCC(=Nc1ccc(F)c(F)c1)OCc1coc(Cc2ccccc2)c1 [Compound 524]
[1]
  LC50 HF: 5.2 µg
[2]
  LC50 BBA: > 0.05%
[4]
  LC50 TBW E (eggs): > 0.1%
[5]
  LC50 CL: > 0.1%
[6]
  LC50 LH: > 0.05%
[7]
  LC50 MW: > 0.01%

## CC(C)(C)C(=Nc1ccc(F)c(F)c1)OCc1coc(Cc2ccccc2)c1 [Compound 525]
[1]
  LC50 HF: > 100 µg
[2]
  LC50 BBA: > 0.05%
[4]
  LC50 TBW E (eggs): > 0.1%
[5]
  LC50 CL: < 0.1%
[6]
  LC50 LH: > 0.05%
[7]
  LC50 MW: > 0.01%

## CC(=Nc1ccc(F)c(F)c1)OCc1coc(Cc2ccccc2)c1 [Compound 526]
[1]
  LC50 HF: 8.3 µg
[2]
  LC50 BBA: > 0.05%
[4]
  LC50 TBW E (eggs): > 0.1%
[5]
  LC50 CL: > 0.1%
[6]
  LC50 LH: > 0.05%
[7]
  LC50 MW: > 0.01%

## CC(C)C(=Nc1ccc(F)c(Cl)c1)OCc1cccc(Oc2ccc(Cl)cn2)c1 [Compound 527]
[1]
  LC50 HF: 47 µg
[2]
  LC50 BBA: 0.03%
[4]
  LC50 TBW E (eggs): 0.035%
[5]
  LC50 CL: 0.00065%
[6]
  LC50 LH: > 0.05%
[7]
  LC50 MW: > 0.01%

## CC(C)C(=Nc1ccc2c(c1)OCO2)OCc1cccc(Oc2ccc(Cl)cn2)c1 [Compound 532]
[1]
  LC50 HF: > 100 µg
[2]
  LC50 BBA: > 0.05%
[4]
  LC50 TBW E (eggs): > 0.1%
[5]
  LC50 CL: < 0.1%
[6]
  LC50 LH: > 0.05%
[7]
  LC50 MW: > 0.01%

## C#CC(OC(=Nc1ccc(F)c(Cl)c1)C(C)C)c1cccc(Oc2ccccc2)c1 (centres unmarked) [Compound 533, N-(3-chloro-4-fluorophenyl)-O-[1-(3-phenoxyphenyl)-2-propyn-1-yl]isobutyrimidate]
[1]
  LC50 HF: 60 µg
[2]
  LC50 BBA: > 0.05%
[4]
  LC50 TBW E (eggs): > 0.1%
[5]
  LC50 CL: > 0.1%
[6]
  LC50 LH: > 0.05%
[7]
  LC50 MW: > 0.01%

## CC(C)C(=Nc1ccc(F)c(Cl)c1)OCC#CCOc1ccccc1 [Compound 534]
[1]
  LC50 HF: > 100 µg
[2]
  LC50 BBA: > 0.05%
[4]
  LC50 TBW E (eggs): > 0.1%
[5]
  LC50 CL: < 0.1%
[6]
  LC50 LH: > 0.05%
[7]
  LC50 MW: > 0.01%

## CC(C)C(=Nc1ccc(C(F)(F)F)cc1)OCc1cccc(Cc2ccccc2)c1 [Compound 535]
[1]
  LC50 HF: 41 µg
[2]
  LC50 BBA: > 0.05%
[4]
  LC50 TBW E (eggs): > 0.1%
[5]
  LC50 CL: > 0.1%
[6]
  LC50 LH: > 0.05%
[7]
  LC50 MW: > 0.01%

## Cc1c(COC(=Nc2ccc(C(C)(C)C)cc2)C(C)C)cccc1-c1ccccc1 [Compound 536]
[1]
  LC50 HF: > 100 µg
[2]
  LC50 BBA: < 0.05%
[4]
  LC50 TBW E (eggs): > 0.1%
[5]
  LC50 CL: < 0.1%
[6]
  LC50 LH: > 0.05%
[7]
  LC50 MW: > 0.01%

## CC(C)C(=Nc1ccc(F)c(Cl)c1)OCc1cccc(Cc2ccccc2)c1 [Compound 537]
[1]
  LC50 HF: 20 µg
[2]
  LC50 BBA: > 0.05%
[4]
  LC50 TBW E (eggs): > 0.1%
[5]
  LC50 CL: > 0.1%
[6]
  LC50 LH: > 0.05%
[7]
  LC50 MW: > 0.01%

## CC(C)C(=Nc1ccc([N+](=O)[O-])cc1)OCc1coc(Cc2ccccc2)c1 [Compound 539]
[1]
  LC50 HF: 22 µg
[2]
  LC50 BBA: > 0.05%
[4]
  LC50 TBW E (eggs): > 0.1%
[5]
  LC50 CL: > 0.1%
[6]
  LC50 LH: > 0.05%
[7]
  LC50 MW: > 0.01%

## CC(C)C(=Nc1ccc2c(c1)OCO2)OCc1ccnc(Oc2ccccc2)c1 [Compound 540]
[1]
  LC50 HF: > 100 µg
[2]
  LC50 BBA: > 0.05%
[4]
  LC50 TBW E (eggs): > 0.1%
[5]
  LC50 CL: < 0.1%
[6]
  LC50 LH: > 0.05%
[7]
  LC50 MW: > 0.01%

## CC(C)C(=Nc1ccc(F)c(Cl)c1)OCc1cccc(Cc2ccccc2)c1 [Compound 541]
[1]
  LC50 HF: < 100 µg
[2]
  LC50 BBA: 0.004%
[4]
  LC50 TBW E (eggs): > 0.1%
[5]
  LC50 CL: 0.001%
[6]
  LC50 LH: > 0.05%
[7]
  LC50 MW: > 0.01%

## CC(C)C(=Nc1ccc(OC(F)(F)F)cc1)OCc1cccc(Cc2ccccc2)c1 [Compound 542]
[1]
  LC50 HF: > 100 µg
[2]
  LC50 BBA: > 0.05%
[4]
  LC50 TBW E (eggs): > 0.1%
[5]
  LC50 CL: > 0.01%
[6]
  LC50 LH: > 0.05%
[7]
  LC50 MW: > 0.01%

## CC(C)C(=Nc1ccc(C(F)(F)F)cc1)OCc1cccc(Cc2ccccc2)c1 [Compound 543]
[1]
  LC50 HF: < 100 µg
[2]
  LC50 BBA: 0.003%
[4]
  LC50 TBW E (eggs): > 0.1%
[5]
  LC50 CL: 0.0008%
[6]
  LC50 LH: < 0.05%
[7]
  LC50 MW: > 0.01%

## COCc1c(F)c(F)c(COC(=Nc2ccc(C(C)(C)C)cc2)C(C)C)c(F)c1F [Compound 544]
[1]
  LC50 HF: > 100 µg
[2]
  LC50 BBA: 0.005%
[4]
  LC50 TBW E (eggs): > 0.1%
[5]
  LC50 CL: > 0.1%
[6]
  LC50 LH: > 0.05%
[7]
  LC50 MW: > 0.01%

## Cc1cccc(N=C(OCc2cccc(Oc3ccc(Cl)cc3)n2)C(C)C)c1 [Compound 545]
[1]
  LC50 HF: < 100 µg
[2]
  LC50 BBA: 0.005%
[4]
  LC50 TBW E (eggs): > 0.1%
[5]
  LC50 CL: > 0.1%
[6]
  LC50 LH: > 0.05%
[7]
  LC50 MW: > 0.01%

## C#CCc1c(F)c(F)c(COC(=Nc2cccc(C(F)(F)F)c2)C(C)C)c(F)c1F [Compound 546]
[1]
  LC50 HF: < 100 µg
[2]
  LC50 BBA: 0.001%
[4]
  LC50 TBW E (eggs): > 0.1%
[5]
  LC50 CL: 0.0001%
[6]
  LC50 LH: < 0.05%
[7]
  LC50 MW: 0.0032%

## C#CCc1c(F)c(F)c(COC(=Nc2ccc3c(c2)OCO3)C(C)C)c(F)c1F [Compound 547]
[1]
  LC50 HF: < 100 µg
[2]
  LC50 BBA: 0.0006%
[4]
  LC50 TBW E (eggs): 0.05%
[5]
  LC50 CL: 0.0005%
[6]
  LC50 LH: < 0.05%
[7]
  LC50 MW: > 0.01%

## CC(C)C(=Nc1cccc(C(F)(F)F)c1)OCC#CCOc1ccccc1 [Compound 548]
[1]
  LC50 HF: > 100 µg
[2]
  LC50 BBA: > 0.05%
[4]
  LC50 TBW E (eggs): > 0.1%
[5]
  LC50 CL: < 0.1%
[6]
  LC50 LH: > 0.05%
[7]
  LC50 MW: > 0.01%

## CC(C)C(=Nc1ccc(F)c(Cl)c1)OCc1cccc(Oc2ccccn2)c1 [Compound 549]
[1]
  LC50 HF: < 100 µg
[2]
  LC50 BBA: > 0.05%
[4]
  LC50 TBW E (eggs): > 0.1%
[5]
  LC50 CL: > 0.1%
[6]
  LC50 LH: > 0.05%
[7]
  LC50 MW: > 0.01%
